The results in this text go back to ChEMBL document CHEMBL1150102, “Chemical constituents of halophilic facultatively anaerobic bacteria, 1” (J Nat Prod, 1995).

Test [1] is described as follows: Inhibition of tyrosin kinase pp60src.
In test [2] the test system is P388. Description: Cytotoxicity against mouse P388 cells. In kind it is functional, cell-based.

The structures appear in SMILES notation. ≈ marks a conversion by molar mass, not a printed value. Calls of active or inactive are those of the source. No cut-off for these calls is given here.

As to `O=C(O)Cc1ccccc1`, the outcome in test [1] was inactive. By IC50 is commonly meant the midpoint of a concentration-inhibition curve. In test [2], `CC(C)C(=O)NCCc1ccc(O)c([N+](=O)[O-])c1` gave an IC50 of 3 µg/mL (≈ 11.9 µM). Further, in test [1], the outcome was inactive. With `CC(C)C(=O)NCCc1ccc(OC(=O)C(C)C)c([N+](=O)[O-])c1`, the result in test [1] was inactive. Same read-out and setting: the result for `O=C(O)Cc1ccc(O)c([N+](=O)[O-])c1` reads “inactive”; that for `O=C(O)c1c[nH]c2ccccc12`, “inactive”.

For `CC(C)CC(=O)NCCc1ccc(O)c([N+](=O)[O-])c1`, the result in test [1] was inactive. Same read-out and setting: the result for `COC(=O)Cc1ccc(OC)c([N+](=O)[O-])c1` reads “inactive”. The same measure, in the same setting: as for `N#Cc1c[nH]c2ccccc12`, the entry is “inactive”. The same measure, in the same setting: the result for `O=Cc1c[nH]c2ccccc12` reads “inactive”; that for `CC(C)CC(=O)NCCc1ccc(OC(=O)CC(C)C)c([N+](=O)[O-])c1`, “inactive”.
